Experimental data: patent US12617773B2, “Azetidin-3-ylmethanol derivatives as CCR6 receptor modulators” (Idorsia Pharmaceuticals Ltd, priority 2020, dated 2026)
pIC50: −log10 of the molar value.

The compounds below were run against T1, human CCR6 (Homo sapiens, UniProt P51684) (assay: FLIPR assay (inhibition of CCL20-induced calcium signal)). Details: HEK-293 cells expressing human CCR6; mean values where determined several times; read-out: FLIPR IC50.
T1 construct: expressed in transfected cells; host or cells: HEK-293
T1 sequence (P51684 1-374): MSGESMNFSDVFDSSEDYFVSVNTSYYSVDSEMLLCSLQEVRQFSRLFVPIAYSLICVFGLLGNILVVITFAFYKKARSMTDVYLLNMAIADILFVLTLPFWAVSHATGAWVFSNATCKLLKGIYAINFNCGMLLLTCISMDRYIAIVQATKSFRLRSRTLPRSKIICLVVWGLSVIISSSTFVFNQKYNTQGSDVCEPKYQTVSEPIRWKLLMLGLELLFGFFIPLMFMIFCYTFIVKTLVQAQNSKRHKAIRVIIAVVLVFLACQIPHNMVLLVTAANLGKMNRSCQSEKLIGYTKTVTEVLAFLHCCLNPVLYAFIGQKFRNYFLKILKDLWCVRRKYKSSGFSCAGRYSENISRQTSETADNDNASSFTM
Type: cell-based
Description: FLIPR assay: The bioactivity of compounds is tested in a fluorometric imaging plate reader (FLIPR: Molecular Devices) using engineered HEK-293 cells expressing the human CCR6 (GenBank: AY242126). Frozen cells are plated on Poly-L-Lysine precoated 384-well plates 2 days prior to bioassay in DMEM medium supplemented with 10% FCS and 1% Penicillin-Streptomycin. […] This buffer, but lacking the dye, is also used for washing and compound dilution steps (assay buffer). Cells are washed free of excess dye with a wash-station (Biotek), leaving 40 microliter of assay buffer at the end. Cells were incubated for 15 minutes at room temperature in the dark, before adding compounds. Stock solutions of test compounds are made up at a concentration of 10 mM in DMSO, and serially diluted first in DMSO and then transferred in assay buffer to concentrations required for inhibition dose response curves. After a 45-minute incubation period in assay buffer at room temperature, 10 microliters of each compound dilution are transferred from a compound plate to the plate containing the recombinant cells in the FLIPR instrument according to the manufacturer's instructions. After cells and compounds were preincubated for 30 minutes at room temperature in the dark, 10 microliter agonist CCL20 (Peprotech) at a final concentration of 10 nM is added, again using the FLIPR instrument. Changes in fluorescence are monitored before and after addition of the test compounds and agonist. Emission peak values above base level after CCL20 addition are exported after base line subtraction.
The calculated IC50 values may fluctuate depending on the daily assay performance. Fluctuations of this kind are known to those skilled in the art.

| pIC50 | Compound |
| --- | --- |
| 7.21 | CC(=O)N1CCC(c2nc(-c3cncc([C@@](O)(c4ccc(C5(C(F)(F)F)CC5)cc4)C4(C)CN(C)C4)c3)no2)CC1 [Example 553] |
| 7.29 | CC(C)c1ccc([C@](O)(c2cncc(C#CC(C)(C)N3CCN(C)C3=O)c2)C2(C)CN(C)C2)cc1 [Example 593] |
| 6.88 | CC(C)C(=O)N1CCC(O)(c2nc(-c3cncc([C@@](O)(c4ccc(C(C)C)cc4)C4(C)CN(C)C4)c3)no2)CC1 [Example 470] |
| 6.61 | CC(C)c1ccc([C@](O)(c2cncc(-c3noc(CN4C(=O)CN(C)C4=O)n3)c2)C2(C)CN(C)C2)cc1 [Example 487] |
| 6.68 | Cc1cccc(C(C)(O)C#Cc2cncc([C@@](O)(c3ccc(C(F)(F)F)cc3)C3(C)CN(C)C3)c2)n1 (stereo partly drawn) [Example 656] |
| 7.10 | CN1CC(C)(C(O)(c2ccc(OC(F)(F)F)cc2)c2cnc(F)c(N3CCCC3)c2)C1 (stereo not drawn) [Example 266, (1,3-Dimethyl-azetidin-3-yl)-(6-fluoro-5-pyrrolidin-1-yl-pyridin-3-yl)-(4-trifluoromethoxy-phenyl)-methanol] |
| 7.79 | CC(C)c1ccc([C@](O)(c2cncc(C#CC(C)(O)c3cccn3C)c2)C2(C)CN(C)C2)cc1 (stereo partly drawn) [Example 651] |
| 6.83 | CC(C)c1ccc([C@](O)(c2cncc(-c3noc(C4(C)CC(=O)N(C)C4)n3)c2)C2(C)CN(C)C2)cc1 (single isomer, unassigned) [Example 365] |
| 6.63 | CC(=O)N1CCC(O)(c2nc(-c3cncc([C@@](O)(c4ccc(C(C)C)cc4)C4(C)CN(C)C4)c3)no2)CC1 [Example 498, 1-[4-(3-{5-[(R)-(1,3-Dimethyl-azetidin-3-yl)-hydroxy-(4-isopropyl-phenyl)-methyl]-pyridin-3-yl}-[1,2,4]oxadiazol-5-yl)-4-hydroxy-piperidin-1-yl]-ethanone] |
| 7.06 | CC(C)c1ccc([C@](O)(c2cncc(N3CCCC(O)C3)c2)C2(C)CN(C)C2)cc1 (stereo partly drawn) [Example 182] |
| 7.19 | CC1([C@](O)(c2ccc(OC(F)(F)F)cc2)c2cncc(N3CCCC3)c2)CN(CCF)C1 [Example 10, (R)-[1-(2-Fluoro-ethyl)-3-methyl-azetidin-3-yl]-(5-pyrrolidin-1-yl-pyridin-3-yl)-(4-trifluoromethoxy-phenyl)-methanol] |
| 6.73 | CC(C)c1ccc([C@](O)(c2cncc(-c3noc(C4(F)CCNCC4)n3)c2)C2(C)CN(C)C2)cc1 [Example 369] |
| 7.46 | CC(C)c1ccc([C@](O)(c2cnnc(Oc3ccc4c(c3)CCCO4)c2)C2(C)CN(C)C2)cc1 [Example 396] |
| 7.11 | Cc1cncc(C(O)(c2ccc(C(C)C)cc2)C2(C)CN(C)C2)c1 (stereo not drawn) [Example 285] |
| 7.29 | CC(C)c1ccc([C@](O)(c2cncc(-c3noc(C45CC(CO)(C4)C5)n3)c2)C2(C)CN(C)C2)cc1 [Example 503] |
| 7.21 | CC(=O)N1CCC(C)(c2nc(-c3cncc([C@@](O)(c4ccc(C(C)C)cc4)C4(C)CN(C)C4)c3)no2)CC1 [Example 423] |
| 7.23 | CC(C)c1ccc([C@](O)(c2cncc(-c3noc(C4(O)CC4)n3)c2)C2(C)CN(C)C2)cc1 [Example 120] |
| 6.89 | CC1([C@](O)(c2ccc(OC(F)(F)F)cc2)c2cncc(N3CCCC3)c2)CN(CC(F)F)C1 [Example 11, (R)-[1-(2,2-Difluoro-ethyl)-3-methyl-azetidin-3-yl]-(5-pyrrolidin-1-yl-pyridin-3-yl)-(4-trifluoromethoxy-phenyl)-methanol] |
| 7.38 | COCCS(=O)(=O)N1CCC(c2nc(-c3cncc([C@@](O)(c4ccc(C(C)C)cc4)C4(C)CN(C)C4)c3)no2)CC1 [Example 384] |
| 6.56 | CC(=O)N1CCC[C@]1(C)CCc1cncc([C@@](O)(c2ccc(C(C)C)cc2)C2(C)CN(C)C2)c1 [Example 642] |
| 6.81 | COc1cccc(C(C)(O)CCc2cc([C@@](O)(c3ccc(C(C)C)cc3)C3(C)CN(C)C3)cnn2)n1 (stereo partly drawn) [Example 419, 4-{5-[(R)-(1,3-Dimethyl-azetidin-3-yl)-hydroxy-(4-isopropyl-phenyl)-methyl]-pyridazin-3-yl}-2-(6-methoxy-pyridin-2-yl)-butan-2-ol] |
| 6.91 | COC(C)(C)Cc1nc(-c2cncc([C@@](O)(c3ccc(C(C)C)cc3)C3(C)CN(C)C3)c2)no1 [Example 136] |
| 7.34 | CCC(CC)c1ccc(C(O)(c2cncc(-c3noc(C4CCN(C(C)=O)CC4)n3)c2)C2(C)CN(C)C2)cc1 (stereo not drawn) [Example 563] |

| pIC50 | Compound |
| --- | --- |
| 6.93 | CCc1ccc([C@](O)(c2cncc(-c3noc(C(C)(C)O)n3)c2)C2(C)CN(C)C2)cc1 [Example 569] |
| 7.19 | CC(C)c1ccc([C@](O)(c2cncc(N3CC4(CC(C5CC5)C4)OC3=O)c2)C2(C)CN(C)C2)cc1 (stereo partly drawn) [Example 203] |
| 7.47 | COCC(=O)N1CCC(c2nc(-c3cncc([C@@](O)(c4ccc(C(C)C)cc4)C4(C)CN(C)C4)c3)no2)(C(C)C)CC1 [Example 477] |
| 7.09 | CN1CC(C)([C@](O)(c2ccc(C(F)(F)F)cc2)c2cncc(N3CCCC3)c2)C1 [Example 281, (R)-(1,3-Dimethyl-azetidin-3-yl)-(5-pyrrolidin-1-yl-pyridin-3-yl)-(4-trifluoromethyl-phenyl)-methanol] |
| 6.83 | CC(C)c1ccc([C@](O)(c2cnnc(N3CCC(C)(C)C3=O)c2)C2(C)CN(C)C2)cc1 [Example 434] |
| 7.24 | CC(C)c1ccc([C@](O)(c2cncc(OCCC(C)(C)O)c2)C2(C)CN(C)C2)cc1 [Example 256] |
| 7.08 | CC(C)c1ccc(C(O)(c2cncc(C3=CC(O)CC3)c2)C2(C)CN(C)C2)cc1 (stereo not drawn) [Example 289, 3-{5-[(1,3-Dimethyl-azetidin-3-yl)-hydroxy-(4-isopropyl-phenyl)-methyl]-pyridin-3-yl}-cyclopent-2-enol] |
| 7.16 | CC(=O)N1CCC(Cc2nc(-c3cncc([C@@](O)(c4ccc(C(C)C)cc4)C4(C)CN(C)C4)c3)no2)CC1 [Example 496] |
| 6.83 | CCOc1ccc(C(O)(c2cncc(N3CCCC3)c2)C2(C)CN(C)C2)cc1 (stereo not drawn) [Example 156] |
| 7.31 | CC(C)c1ccc([C@](O)(c2cncc(C3=CC(=O)CC3)c2)C2(C)CN(C)C2)cc1 [Example 294, 3-{5-[(R)-(1,3-Dimethyl-azetidin-3-yl)-hydroxy-(4-isopropyl-phenyl)-methyl]-pyridin-3-yl}-cyclopent-2-enone] |
| 7.21 | CC(=O)N1CCC(COc2cncc([C@@](O)(c3ccc(C(C)C)cc3)C3(C)CN(C)C3)c2)CC1 [Example 669, 1-(4-{5-[(R)-(1,3-Dimethyl-azetidin-3-yl)-hydroxy-(4-isopropyl-phenyl)-methyl]-pyridin-3-yloxymethyl}-piperidin-1-yl)-ethanone] |
| 6.75 | COCCC1CCN(c2cc([C@@](O)(c3ccc(C(C)C)cc3)C3(C)CN(C)C3)cnn2)C1=O (stereo partly drawn) [Example 442] |
| 6.11 | Cc1nc(C)n(CCOc2cncc([C@@](O)(c3ccc(C(C)C)cc3)C3(C)CN(C)C3)c2)n1 [Example 255] |
| 7.24 | CC(C)c1ccc([C@](O)(c2cncc(-c3noc(C(C)(C)O)n3)c2)C2(C)CN(C)C2)cc1 [Example 121] |
| 7.21 | CC(C)c1ccc([C@](O)(c2cncc(C3=CC(C)(O)CC3)c2)C2(C)CN(C)C2)cc1 (stereo partly drawn) [Example 295, 3-{5-[(R)-(1,3-Dimethyl-azetidin-3-yl)-hydroxy-(4-isopropyl-phenyl)-methyl]-pyridin-3-yl}-1-methyl-cyclopent-2-enol] |
| 7.22 | CC(C)c1ccc([C@](O)(c2cncc(-c3noc(CC4(O)CCC4)n3)c2)C2(C)CN(C)C2)cc1 [Example 137] |
| 6.37 | CC(C)c1ccc([C@](O)(c2cncc(C#C[C@@]3(O)CCN(C)C3=O)c2)C2(C)CN(C)C2)cc1 [Example 610] |
| 7.36 | CC(C)c1ccc([C@](O)(c2cncc(-c3noc(C4CCOCC4)n3)c2)C2(C)CN(C3CC3)C2)cc1 [Example 451] |
| 6.81 | CC(C)c1ccc([C@](O)(c2cncc(N3CC(c4cnn(C(F)F)c4)CC3=O)c2)C2(C)CN(C)C2)cc1 (stereo partly drawn) [Example 678] |
| 7.71 | CC(C)c1ccc([C@](O)(c2cncc(OCc3nc(C4CC4)no3)c2)C2(C)CN(C)C2)cc1 [Example 254] |
| 6.70 | Cc1ccc(C2CC(=O)N(c3cncc([C@@](O)(c4ccc(C(C)C)cc4)C4(C)CN(C)C4)c3)C2)cn1 (stereo partly drawn) [Example 673] |
| 7.38 | CC(C)c1ccc([C@](O)(c2cncc(C#CC3(O)CCCc4cccnc43)c2)C2(C)CN(C)C2)cc1 (stereo partly drawn) [Example 42] |
